Where “and” joins values, the source holds several entries; their conditions need not be identical. Equal values may be shown once. Toxic doses and inconclusive results are not listed. Cut-off read from the data, not from the text of the source: active = T/C of 150% or more; inactive = T/C below 125%.
Test system: L1210 leukemia ip in BDF1 mice, survival T/C
Assay: NCI In Vivo Anticancer Drug Screen. Data for tumor model L1210 Leukemia (intraperitoneal) in B6D2F1 (BDF1) mice
Settings: endpoint: mean survival time, higher = longer survival
Procedure, shortened: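 Value reflects the ratio of survival in compound-treated mice to survival in vehicle-treated controls, with both groups carrying the same transplanted tumor.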

[1] = dose: 100.0 mg/kg/injection, schedule: Q04DX003 (ip), vehicle: saline with Tween-80
[2] = dose: 200.0 mg/kg/injection, schedule: Q04DX003 (ip), vehicle: saline with Tween-80
[3] = dose: 400.0 mg/kg/injection, schedule: Q04DX003 (ip), vehicle: saline with Tween-80
[4] = dose: 100.0 mg/kg/injection, schedule: Q01DX009 (ip), vehicle: saline
[5] = dose: 200.0 mg/kg/injection, schedule: Q01DX009 (ip), vehicle: saline
[6] = dose: 50.0 mg/kg/injection, schedule: Q01DX001 (ip), vehicle: saline
[7] = dose: 100.0 mg/kg/injection, schedule: Q01DX001 (ip), vehicle: saline
[8] = dose: 200.0 mg/kg/injection, schedule: Q01DX001 (ip), vehicle: saline
[9] = dose: 400.0 mg/kg/injection, schedule: Q01DX001 (ip), vehicle: saline

Measured: T/C

CCCCCC(CN(C)C)C(/C=C/c1ccccc1Cl)OC(=O)c1ccc([N+](=O)[O-])cc1 (configuration not stated)
inactive: [1] 95 % of control | [2] 92 % of control | [3] 92 % of control

CCCCCCC(=O)/C=C/c1ccc(Cl)cc1
inactive: dose: 100.0 mg/kg/injection, schedule: Q01DX009 (ip), vehicle: acetone 93 % of control | [1] 96 % of control | dose: 200.0 mg/kg/injection, schedule: Q01DX009 (ip), vehicle: acetone 90 % of control | [2] 98 % of control | dose: 400.0 mg/kg/injection, schedule: Q01DX009 (ip), vehicle: acetone 92 % of control | [3] 93 % of control

CC(=O)Nc1ncc(/C=C/c2ccc([N+](=O)[O-])cc2)c(NC(C)=O)n1
inactive: dose: 100.0 mg/kg/injection, schedule: Q01DX001 (ip), vehicle: Klucel (hydroxypropylcellulose) (HPC) 100 % of control | dose: 200.0 mg/kg/injection, schedule: Q01DX001 (ip), vehicle: Klucel (hydroxypropylcellulose) (HPC) 87 % of control | dose: 400.0 mg/kg/injection, schedule: Q01DX001 (ip), vehicle: Klucel (hydroxypropylcellulose) (HPC) 87 % of control

[O-][n+]1c(Cl)cc(Cl)c2ccccc21
inactive: dose: 25.0 mg/kg/injection, schedule: Q01DX009 (ip), vehicle: saline with Tween-80 95 % of control | dose: 50.0 mg/kg/injection, schedule: Q01DX009 (ip), vehicle: saline with Tween-80 114 % of control | dose: 100.0 mg/kg/injection, schedule: Q01DX009 (ip), vehicle: saline with Tween-80 97 % of control and 102 % of control

COC(=O)CC(CC(=O)OC)c1cccc([N+](=O)[O-])c1
inactive: dose: 25.6 mg/kg/injection, schedule: Q04DX002 (ip), vehicle: saline with Tween-80 101 % of control | dose: 64.0 mg/kg/injection, schedule: Q04DX002 (ip), vehicle: saline with Tween-80 101 % of control | [1] 106 % of control | dose: 160.0 mg/kg/injection, schedule: Q04DX002 (ip), vehicle: saline with Tween-80 101 % of control | [2] 101 % of control | dose: 400.0 mg/kg/injection, schedule: Q04DX002 (ip), vehicle: saline with Tween-80 86 % of control | [3] 101 % of control

CCCC(=O)CCCCNC(=O)c1ccccc1
inactive: dose: 100.0 mg/kg/injection, schedule: Q04DX002 (ip), vehicle: saline with Tween-80 99 % of control | dose: 200.0 mg/kg/injection, schedule: Q04DX002 (ip), vehicle: saline with Tween-80 89 % of control

CC(=O)c1cccc(NC(=O)Oc2ccc3c(C)cc(=O)oc3c2)c1
inactive: dose: 100.0 mg/kg/injection, schedule: Q01DX009 (ip), vehicle: Klucel (hydroxypropylcellulose) (HPC) 98 % of control | dose: 200.0 mg/kg/injection, schedule: Q01DX009 (ip), vehicle: Klucel (hydroxypropylcellulose) (HPC) 101 % of control | dose: 400.0 mg/kg/injection, schedule: Q01DX009 (ip), vehicle: Klucel (hydroxypropylcellulose) (HPC) 101 % of control

NC(Cc1cc(Cl)c(O)c(Cl)c1)C(=O)O (configuration not stated)
inactive: [4] 103 % of control | dose: 150.0 mg/kg/injection, schedule: Q01DX009 (ip), vehicle: saline 108 % of control | [5] 103 % of control

CCOC(=O)CN(C)C(=O)OCC
inactive: [6] 104 % of control | [7] 101 % of control | [8] 117 % of control | [9] 101 % of control

CN1C2CC(=O)CC1C1CC2C1
inactive: dose: 12.5 mg/kg/injection, schedule: Q04DX002 (ip), vehicle: Klucel (hydroxypropylcellulose) (HPC) 98 % of control | dose: 25.0 mg/kg/injection, schedule: Q04DX002 (ip), vehicle: Klucel (hydroxypropylcellulose) (HPC) 94 % of control

O=c1[nH]c2ncccc2c(=O)n1OS(=O)(=O)c1ccccc1
inactive: [6] 102 % of control | dose: 50.0 mg/kg/injection, schedule: Q01DX009 (ip), vehicle: saline 98 % of control | [7] 96 % of control | [4] 106 % of control | [8] 93 % of control | [5] 98 % of control | [9] 96 % of control

NC(=O)C1CCCN1Cc1ccc2c(c1)OCO2 (configuration not stated)
inactive: [7] 97 % of control | [8] 94 % of control | [9] 94 % of control

CN=C(c1ccc(NC(=O)c2ccc(C(=O)Nc3ccc(C(=NC)N4CCCC4)cc3)cc2)cc1)N1CCCC1
inactive: dose: 0.5 mg/kg/injection, schedule: Q01DX Z (ip), vehicle: water 96 % of control | dose: 1.0 mg/kg/injection, schedule: Q01DX Z (ip), vehicle: water 96 % of control

Cc1ccc(C)c(NC(=O)Nc2ccccc2F)c1
inactive: dose: 100.0 mg/kg/injection, schedule: Q01DX009 (ip), vehicle: carboxymethylcellulose (CMC) 89 % of control | dose: 200.0 mg/kg/injection, schedule: Q01DX009 (ip), vehicle: carboxymethylcellulose (CMC) 86 % of control | dose: 400.0 mg/kg/injection, schedule: Q01DX009 (ip), vehicle: carboxymethylcellulose (CMC) 87 % of control

Cn1c(=O)n2n(c1=O)C1CCC2C2C=CC21 (configuration not stated)
inactive: dose: 6.25 mg/kg/injection, schedule: Q01DX001 (ip), vehicle: saline 93 % of control | dose: 12.5 mg/kg/injection, schedule: Q01DX001 (ip), vehicle: saline 94 % of control

CN1c2ccccc2C(C)(C)C12C=Cc1ccccc1O2 (configuration not stated)
inactive: dose: 25.0 mg/kg/injection, schedule: Q04DX002 (ip), vehicle: gum acacia 111 % of control | dose: 50.0 mg/kg/injection, schedule: Q04DX002 (ip), vehicle: gum acacia 103 % of control | dose: 100.0 mg/kg/injection, schedule: Q04DX002 (ip), vehicle: gum acacia 88 % of control | dose: 200.0 mg/kg/injection, schedule: Q04DX002 (ip), vehicle: gum acacia 94 % of control

O=C(COc1ccccc1)NCc1ccccc1
inactive: dose: 100.0 mg/kg/injection, schedule: Q04DX003 (ip), vehicle: saline 94 % of control | dose: 200.0 mg/kg/injection, schedule: Q04DX003 (ip), vehicle: saline 92 % of control | dose: 400.0 mg/kg/injection, schedule: Q04DX003 (ip), vehicle: saline 92 % of control

CC(C)CC(CC(C)C)=NO
inactive: dose: 100.0 mg/kg/injection, schedule: Q01DX001 (ip), vehicle: carboxymethylcellulose (CMC) 104 % of control | dose: 200.0 mg/kg/injection, schedule: Q01DX001 (ip), vehicle: carboxymethylcellulose (CMC) 101 % of control | dose: 400.0 mg/kg/injection, schedule: Q01DX001 (ip), vehicle: carboxymethylcellulose (CMC) 103 % of control

CCCCCC(CN(C)C)C(=O)/C=C/c1ccc(Cl)cc1 (configuration not stated)
inactive: dose: 12.5 mg/kg/injection, schedule: Q01DX009 (sc), vehicle: other 100 % of control | dose: 25.0 mg/kg/injection, schedule: Q01DX009 (sc), vehicle: other 100 % of control | dose: 50.0 mg/kg/injection, schedule: Q01DX009 (sc), vehicle: other 93 % of control | dose: 50.0 mg/kg/injection, schedule: Q04DX003 (sc), vehicle: steriod suspending solution 95 % of control | dose: 75.0 mg/kg/injection, schedule: Q01DX009 (sc), vehicle: other 98 % of control | dose: 100.0 mg/kg/injection, schedule: Q01DX001 (sc), vehicle: steriod suspending solution 91 % of control | dose: 115.0 mg/kg/injection, schedule: Q01DX009 (sc), vehicle: other 100 % of control | dose: 200.0 mg/kg/injection, schedule: Q01DX001 (sc), vehicle: steriod suspending solution 116 % of control

[O-]/[N+](=C\c1ccc(OCc2ccccc2)cc1)c1ccccc1
inactive: [6] 102 % of control | [7] 102 % of control | [8] 108 % of control | [9] 90 % of control

CC(C)c1ccccc1OS(=O)(=O)c1ccccc1
inactive: [1] 91 % of control | [2] 95 % of control | [3] 98 % of control

C/C=C(\C#N)c1ccc(-c2ccccc2)cc1
inactive: dose: 100.0 mg/kg/injection, schedule: Q01DX001 (ip), vehicle: saline with Tween-80 94 % of control | dose: 200.0 mg/kg/injection, schedule: Q01DX001 (ip), vehicle: saline with Tween-80 91 % of control | dose: 400.0 mg/kg/injection, schedule: Q01DX001 (ip), vehicle: saline with Tween-80 98 % of control

COc1cc(CCC(=O)O)cc(/C=N/NC(N)=O)c1O
inactive: [7] 101 % of control | [8] 89 % of control | [9] 95 % of control

NC(=O)/C=C/C(=O)O (tested in a mixture with another compound)
inactive: dose: 31.25 mg/kg/injection, schedule: Q#A X Z (ip), vehicle: saline 118 % of control | dose: 62.5 mg/kg/injection, schedule: Q#A X Z (ip), vehicle: saline 119 % of control | dose: 125.0 mg/kg/injection, schedule: Q#A X Z (ip), vehicle: saline 100 % of control | dose: 125.0 mg/kg/injection, schedule: Q#A X Z (oral), vehicle: saline 102 % of control | dose: 250.0 mg/kg/injection, schedule: Q#A X Z (oral), vehicle: saline 100 % of control | dose: 500.0 mg/kg/injection, schedule: Q#A X Z (oral), vehicle: saline 102 % of control | dose: 1000.0 mg/kg/injection, schedule: Q#A X Z (oral), vehicle: saline 102 % of control

CC(C)OC(=O)c1ccc(N)cc1S(N)(=O)=O
inactive: dose: 100.0 mg/kg/injection, schedule: Q01DX001 (ip), vehicle: other 106 % of control

From PubChem BioAssay AID248 (DTP/NCI, 2004)
